ChEMBL document CHEMBL3352247, “Synthesis and antimycobacterial evaluation of 5-alkylamino-N-phenylpyrazine-2-carboxamides” (Bioorg Med Chem, 2015)
Converted amounts (≈) assume the structure as drawn. The source made the active and inactive calls. The calls are words filed in the database; no cut-off is given here.

How the values were obtained:
[1] = test system: Staphylococcus epidermidis; test: Antibacterial activity against Staphylococcus epidermidis H 6966/08 clinical isolate after 24 to 48 hrs by broth microdilution method; assay type: functional, organism-based
Staphylococcus aureus [2] = test: Antibacterial activity against Staphylococcus aureus CCM 4516/08 after 24 to 48 hrs by broth microdilution method; assay type: functional, organism-based
Klebsiella pneumoniae [3] = test: Antibacterial activity against ESBL-positive Klebsiella pneumoniae J 14368/08 clinical isolate after 24 to 48 hrs by broth microdilution method; assay type: functional, organism-based
[4] = test system: Trichophyton mentagrophytes; test: Antifungal activity against Trichophyton mentagrophytes 445 after 72 to 120 hrs by two-fold dilution method; assay type: functional, organism-based
[5] = Antimycobacterial activity against Mycobacterium avium subsp. avium Chester CNCTC My 80/72 after 5 days by AlamarBlue assay; assay type: functional; settings: Chester CNCTC My 80/72, 120 h
Enterococcus sp. [6] = test: Antibacterial activity against Enterococcus sp. J 14365/08 clinical isolate after 24 to 48 hrs by broth microdilution method; assay type: functional, organism-based
Pseudomonas aeruginosa = test: Antibacterial activity against Pseudomonas aeruginosa CCM 1961 after 24 to 48 hrs by broth microdilution method; assay type: functional, organism-based
Escherichia coli = test: Antibacterial activity against Escherichia coli CCM 4517 after 24 to 48 hrs by broth microdilution method; assay type: functional, organism-based
Lichtheimia corymbifera = test: Antifungal activity against Absidia corymbifera 272 after 24 to 48 hrs by two-fold dilution method; assay type: functional, organism-based
Candida albicans = test: Antifungal activity against Candida albicans ATCC 44859 after 24 to 48 hrs by two-fold dilution method; assay type: functional, organism-based
Mycobacterium kansasii [7] = test: Antimycobacterial activity against Mycobacterium kansasii CNCTC My 235/80 after 5 to 7 days by AlamarBlue assay; assay type: functional
Enterococcus sp. [8] = test: Antibacterial activity against Enterococcus sp. after 24 to 48 hrs by broth microdilution method; assay type: functional
Aspergillus fumigatus = test: Antifungal activity against Aspergillus fumigatus 231 after 24 to 48 hrs by two-fold dilution method; assay type: functional, organism-based
Staphylococcus aureus [9] = test: Antibacterial activity against methicillin-resistant Staphylococcus aureus H 5996/08 clinical isolate after 24 to 48 hrs by broth microdilution method; assay type: functional, organism-based
Pichia kudriavzevii = test: Antifungal activity against Candida krusei E28 after 24 to 48 hrs by two-fold dilution method; assay type: functional, organism-based
Nakaseomyces glabratus = test: Antifungal activity against Candida glabrata 20/I after 24 to 48 hrs by two-fold dilution method; assay type: functional, organism-based
Candida tropicalis = test: Antifungal activity against Candida tropicalis 156 after 24 to 48 hrs by two-fold dilution method; assay type: functional, organism-based
Klebsiella pneumoniae [10] = test: Antibacterial activity against Klebsiella pneumoniae D 11750/08 clinical isolate after 24 to 48 hrs by broth microdilution method; assay type: functional, organism-based
[11] = test system: Mycobacterium tuberculosis; test: Antimycobacterial activity against Mycobacterium tuberculosis H37Rv CNCTC My 331/88 after 10 to 14 days by AlamarBlue assay; assay type: functional
Trichosporon asahii = test: Antifungal activity against Trichosporon asahii 1188 after 24 to 48 hrs by two-fold dilution method; assay type: functional, organism-based
[12] = Antimycobacterial activity against Mycobacterium avium subsp. avium Chester CNCTC My 80/72 in Middlebrook 7H9 broth after 5 days by AlamarBlue assay; assay type: functional; settings: Chester CNCTC My 80/72, 120 h
Mycobacterium kansasii [13] = test: Antimycobacterial activity against Mycobacterium kansasii CNCTC My 235/80 in Middlebrook 7H9 broth after 5 days by AlamarBlue assay; assay type: functional; settings: CNCTC My 235/80, 120 h
[14] = test system: Mycobacterium tuberculosis; test: Antimycobacterial activity against Mycobacterium tuberculosis H37Rv CNCTC My 331/88 in Middlebrook 7H9 broth after 5 days by AlamarBlue assay; assay type: functional; settings: H37Rv CNCTC My 331/88, 120 h

SMILES | Activity [1] | Activity (Staphylococcus aureus [2]) | Activity (Klebsiella pneumoniae [3]) | Activity [4] | MIC [5] | Activity (Enterococcus sp. [6]) | Activity (Pseudomonas aeruginosa) | Activity (Escherichia coli) | Activity (Lichtheimia corymbifera) | Activity (Candida albicans) | MIC (Mycobacterium kansasii [7]) | Activity (Enterococcus sp. [8]) | Activity (Aspergillus fumigatus) | Activity (Staphylococcus aureus [9]) | Activity (Pichia kudriavzevii) | Activity (Nakaseomyces glabratus) | Activity (Candida tropicalis) | Activity (Klebsiella pneumoniae [10]) | MIC [11] | Activity (Trichosporon asahii) | other results
CCCCCCNc1cnc(C(=O)Nc2ccccc2)cn1 | inactive | inactive | inactive | inactive | > 100 µg/mL | inactive | inactive | inactive | inactive | inactive | 2.6 µM | Active | inactive | inactive | inactive | inactive | inactive | inactive | 2.6 µM | inactive | 
CCCCCCCNc1cnc(C(=O)Nc2ccccc2Cl)cn1 | inactive | inactive | inactive | inactive | > 25 µg/mL | inactive | inactive | inactive | inactive | inactive | > 25 µg/mL | Active | inactive | inactive | inactive | inactive | inactive | inactive | 36 µM | inactive | 
NNC(=O)c1ccncc1 [ISONIAZID] |  |  |  |  | 12.5 µg/mL (≈ 91.1 µM) |  |  |  |  |  | 11.4 µM |  |  |  |  |  |  |  | 1.5 µM |  | 
CCCNc1cnc(C(=O)Nc2ccccc2Cl)cn1 | inactive | inactive | inactive | inactive | > 100 µg/mL | inactive | inactive | inactive | inactive | inactive | > 100 µg/mL | Active | inactive | inactive | inactive | inactive | inactive | inactive | > 100 µg/mL | inactive | 
CCCNc1cnc(C(=O)Nc2ccccc2)cn1 | inactive | inactive | inactive | inactive | > 100 µg/mL | inactive | inactive | inactive | inactive | inactive | 48.8 µM | Active | inactive | inactive | inactive | inactive | inactive | inactive | 12.2 µM | inactive | 
CCCCCCNc1cnc(C(=O)Nc2ccccc2Cl)cn1 | inactive | inactive | inactive | inactive | > 100 µg/mL | inactive | inactive | inactive | inactive | inactive | > 100 µg/mL | Active | inactive | inactive | inactive | inactive | inactive | inactive | > 100 µg/mL | inactive | 
CCCCNc1cnc(C(=O)Nc2ccccc2Cl)cn1 | inactive | inactive | inactive | inactive | > 100 µg/mL | inactive | inactive | inactive | inactive | inactive | > 100 µg/mL |  | inactive | inactive | inactive | inactive | inactive | inactive | > 100 µg/mL | inactive | MIC (Enterococcus sp. [8]): 62.5 µM (≈ 19 µg/mL)
CCCCCCCCNc1cnc(C(=O)Nc2ccccc2Cl)cn1 | inactive | inactive | inactive | inactive | > 25 µg/mL | inactive | inactive | inactive | inactive | inactive | > 25 µg/mL | Active | inactive | inactive | inactive | inactive | inactive | inactive | > 25 µg/mL | inactive | 
NC(=O)c1cnccn1 [PYRAZINAMIDE] |  |  |  |  | > 100 µg/mL |  |  |  |  |  | > 100 µg/mL |  |  |  |  |  |  |  | 50.8 µM |  | 
CCCCCNc1cnc(C(=O)Nc2ccccc2Cl)cn1 | inactive | inactive | inactive | inactive | > 100 µg/mL | inactive | inactive | inactive | inactive | inactive | > 100 µg/mL | Active | inactive | inactive | inactive | inactive | inactive | inactive | > 100 µg/mL | inactive | 
O=C(Nc1ccccc1Cl)c1cnc(Cl)cn1 |  |  |  |  | > 100 µg/mL |  |  |  |  |  |  |  |  |  |  |  |  |  | 2 µM |  | 
O=C(Nc1ccccc1)c1cnc(NCCCc2ccccc2)cn1 | inactive | inactive | inactive | inactive |  | inactive | inactive | inactive | inactive | inactive |  |  | inactive | inactive | inactive | inactive | inactive | inactive |  | inactive | MIC [12]: > 100 µg/mL; MIC (Mycobacterium kansasii [13]): > 100 µg/mL; MIC [14]: 75.2 µM (≈ 25 µg/mL)
CCCCCNc1cnc(C(=O)Nc2ccccc2)cn1 | inactive | inactive | inactive | inactive | > 100 µg/mL | inactive | inactive | inactive | inactive | inactive | 11 µM | Active | inactive | inactive | inactive | inactive | inactive | inactive | 11 µM | inactive | 
CCCCCCCCNc1cnc(C(=O)Nc2ccccc2)cn1 | inactive | inactive | inactive | inactive | > 100 µg/mL | inactive | inactive | inactive | inactive | inactive | > 100 µg/mL |  | inactive | inactive | inactive | inactive | inactive | inactive | 9.6 µM | inactive | MIC (Enterococcus sp. [8]): 62.5 µM (≈ 20.4 µg/mL)
